Test results published in patent US10385003B2, “Ophthalmic formulation” (priority 2011, dated 2019).
“Also recorded” adds a separate entry of the source. Read-outs that look alike come from different tables or passages of the source. Each block holds one molecule with its values, some of them ahead of it.

What was measured:
[1] = Π-A and pressure/time measurements of meibomian lipid films mixed with compounds of formula (I) (Example 5, FIG. 2); type: physicochemical, human
Experimental: (§1) The physico-chemical properties of certain wax esters, meibomian lipids, and compounds of formula (I) alone or mixed with human meibum were characterized on a Langmuir-Blodgett minitrough by means of surface pressure-area (Π-A) measurements.
(§2) A buffer (NaCl: 6.63 g/L, KCl: 1.72 g/L, NaHCO3: 1.38 g/L, CaCl2.2H2O: 0.15 g/L, NaH2PO4.H2O: 0.10 g/L and MOPS: 4.18 g/L dissolved in MilliQ water) was added to a double barrier minitrough (Nima Technology Ltd, UK; Working surface area 15 cm^2−80 cm^2). Purified preparations of wax esters in chloroform (1 mg/mL), meibomian lipids in chloroform (1 mg/mL), and compounds of formula (I) in chloroform (ranging from 1.4 μmol to 0.1 μmol) alone or mixed with human meibum at different ratios, were spread on the surface (air-buffer interface) of the buffer subphase. Dynamic Π-A profiles of films at the air-buffer interface of the Langmuir trough were collected using software supplied by NIMA Technology. Surface pressure was monitored using a paper plate connected to a Wilhelmy balance. Compression and expansion cycles were conducted over an area (A) of 79 cm^2−16 cm^2 at a barrier rate of 15 cm^2/min and at a temperature of 20° C. and 34° C.
Adding a small amount of a compound of formula (I) causes fast stabilisation of the film (indicated on the pressure/time curve with the mixture having little change between isocycles) and the maximum surface pressures are much higher.

[2] = Surface pressure-area (Π-A) measurements of pure lipid films on a Langmuir-Blodgett minitrough (Example 5, FIG. 1); type: physicochemical; conditions: pure film at air-buffer interface, 20° C. and 34° C.
Experimental: as §1, §2
This is indicated by the take-off moving to the left of the x-axis (indicating collapse), whereas the take-off for the compounds of formula (I) remains constant.

[3] = Π-A measurements of meibomian lipids from a patient with dry eye disease mixed with a compound of formula (I) (Example 5, FIG. 3); type: physicochemical, human; conditions: dry eye patient meibomian lipids with 3 μL compound
Experimental: as §2

[4] = Π-A isocycles of equimolar pure lipid films on artificial tear buffer, Langmuir trough (Example 6, FIG. 4); type: physicochemical; conditions: for surface activity of pure film: 7.5 nmol film; for surface activity of pure film / change of Π-A profile / take-off through repeated isocycles / change of maximum surface pressure (Πmax) with increasing isocycles: 35° C.; for change of Π-A profile / take-off through repeated isocycles / change of maximum surface pressure (Πmax) with increasing isocycles: 7.5 nmol pure film; for surface area per molecule on take-off: pure film, estimated
Experimental: (§3) Freshly synthesised (O-oleoyl)-ω-hydroxypalmitic acid (an example of a compound of formula (I)) was spread either alone or mixed with human meibum on a Langmuir trough on an artificial tear buffer. Pressure-area isocycle profiles were recorded and compared with those of palmityl oleate and oleic acid, alone or mixed with meibum. These measurements were accompanied by fluorescence microscopy of meibum mixed films during pressure-area isocycles.
The surface characteristics of (O-oleoyl)-ω-hydroxypalmitic acid were compared with palmityl oleate (a structurally similar wax ester) and oleic acid (which is equivalent to the fatty acid (amphiphilic) component of (O-oleoyl)-ω-hydroxypalmitic acid).
Films were formed by spreading 7.5 nmol of the lipids dissolved in chloroform onto the cleaned surface (air-buffer interface) of an artificial tear buffer (NaCl: 6.63 g/L, KCl: 1.72 g/L, NaHCO3: 1.38 g/L, CaCl2.2H2O: 0.15 g/L, NaH2PO4×H2O: 0.10 g/L and MOPS: 4.18 g/L dissolved in ion exchange ultrapure water) in a double barrier 80 mL temperature-controlled (35° C.) Langmuir trough (Nima Technology Ltd, UK). After 5 isocycles were obtained, the temperature was lowered to 20° C. A Whilhelmy balance (Whatman No. 1 filter paper) was used to record surface pressure during isocycles (79 cm^2-16 cm^2 at 10 cm^2/min).

[5] = Π-A isocycles of human meibum films mixed with model lipids (Example 6, FIG. 5); type: physicochemical; conditions: for change of Πmax in subsequent isocycles: meibum 20 μg mixed with lipid, 20° C.; for Πmax in the first isocycle versus meibomian lipid films alone: meibum 20 μg mixed with −10 mol % lipid, spread at 20° C.
Experimental: as §3
Collection of meibomian lipids was in accordance with the Tenets of Helsinki. Human meibomian lipids were gently squeezed out of the meibomian glands of a single subject's lower eyelids by applying pressure to the eyelids using sterile cotton swabs on either side of the lid. Multiple collections were carried out and pooled to provide consistency in the experiments. The subject was devoid of any external signs or symptoms of ocular pathology including dry eye disease. The expressed lipids were harvested using a sterile stainless steel spatula and dissolved in chloroform. The meibomian lipids were dried through vacuum concentration and centrifugation, and then reconstituted in chloroform spiked with 0.5% (w/w) of the fluorophore, 1-palmitoyl-2-[12-[(7-nitro-2-1,3-benzoxadiazol-4-yl)amino]dodecanoyl]-sn-glycero-3-phosphatidylcholine] (NBD-DPPC) (Avanti Polar Lipids, Auspep Pty. Ltd (Tullamarine, Australia)) and stored at −20° C. until used.
The results were compared with mixtures with meibomian lipids. Human meibum (20 μg) was mixed with −10 mol % (O-oleoyl)-ω-hydroxypalmitic acid (2 μg) or with palmityl oleate (1.9 μg) or oleic acid (1.1 μg). These mixtures were spread at 20° C. and 5 isocycles carried out. The film was then heated to 35° C. for another 5 isocycles. The Π-A curves were compared with those for pure meibomian lipid films. In some cases, meibomian lipids doped with 0.5% (w/w) NBD-DPPC were used in order to view the films microscopically.
In general, meibomian films were very tolerant to the changes in their composition, indicated by the fact that the shapes of the different Π-A curves of mixed films were similar to those obtained from films of pure meibomian lipids (FIG. 5). […] Meibum containing fluorophore was spread on artificial tear buffer alone or pre-mixed with each of (O-oleoyl)-ω-hydroxypalmitic acid, palmityl oleate, or oleic acid were spread at 20° C. on the trough. After five isocycles, the trough was heated to 35° C. and five more isocycles were carried out. Then the trough was cooled back to 20° C. and again five more isocycles were run.

[6] = Fluorescence microscopy of meibum mixed films during pressure-area isocycles (Example 6, FIG. 6); type: physicochemical, human; conditions: NBD-DPPC doped meibum, 20° C.
Experimental: as §3
Collection of meibomian lipids was in accordance with the Tenets of Helsinki. Human meibomian lipids were gently squeezed out of the meibomian glands of a single subject's lower eyelids by applying pressure to the eyelids using sterile cotton swabs on either side of the lid. Multiple collections were carried out and pooled to provide consistency in the experiments. The subject was devoid of any external signs or symptoms of ocular pathology including dry eye disease. […]
Micrographs comparing the appearance of pure meibomian lipid films (Row A) with meibomian lipids mixed with the (O-oleoyl)-ω-hydroxypalmitic acid (Row B), palmityl oleate (Row C) or oleic acid (Row D) at 20° C. […] Although not quantitatively verified, the darker patches appeared to be more prevalent in the mixed films of palmityl oleate and oleic acid than for pure meibomian lipid films.

[7] = meibomian lipids (20 μL) mixed with 3-5 μL compound, FIG. 2

Compound: CCCCCCCC/C=C\CCCCCCCC(=O)OCCCCCCCCCC(=O)O [(O-oleoyl)-10-hydroxycaprinic acid, (O)-oleoyl-10-hydroxydecanoic acid]
stabilisation of meibomian lipid film [1, 7]: stabilise the films

Compound: CCCCCCCC/C=C\CCCCCCCC(=O)OCCCCCCCCCCCCCCCC(=O)O [(O-oleoyl)-16-hydroxypalmitic acid]
film collapse during compression/expansion cycles (take-off position) [2]: do not collapse
stabilisation of meibomian lipid film [1, 7]: stabilise the films
hysteresis of pressure/area curve [3]: increase in hysteresis
surface pressure of film [3]: increases the surface pressure
surface activity of pure film ([4]; listed as (O-oleoyl)-w-hydroxypalmitic acid): as surface active as oleic acid films
surface activity of pure film ([4]; listed as (O-oleoyl)-ω-hydroxypalmitic acid): very surface active; also recorded: much more surface active
change of Π-A profile / take-off through repeated isocycles ([4]; FIG. 4): little change in its profile
surface area covered by pure film ([4]; compared with palmityl oleate or oleic acid): much larger surface area than either palmityl oleate or oleic acid
surface area per molecule on take-off [4]: 131 Å^2 per molecule
change of Πmax in subsequent isocycles [5]: small increase
Πmax in the first isocycle versus meibomian lipid films alone [5]: higher

film collapse during compression/expansion cycles (take-off position) [2]: do not collapse
stabilisation of meibomian lipid film [1]: stabilise the films
Compound: CCCCCCCCCCCCCCCCCC(=O)OCCCCCCCCCCCCCCCC(=O)O [(O-stearyl)-16-hydroxypalmitic acid, (O)-stearyl-16-hydroxypalmitic acid]

change of maximum surface pressure (Πmax) with increasing isocycles ([4]; FIG. 4): decreases
change of Π-A profile / take-off through repeated isocycles ([4]; FIG. 4): decreases in take-off
change of Πmax in subsequent isocycles [5]: decreased
Πmax in the first isocycle versus meibomian lipid films alone [5]: higher
Compound: CCCCCCCC/C=C\CCCCCCCC(=O)O [oleic acid, reference compound]
microscopic appearance of meibomian film mixed with lipid [6]: did not appear substantially different from pure meibomian lipid films

film collapse during compression/expansion cycles (take-off position) [2]: collapse
change of maximum surface pressure (Πmax) with increasing isocycles ([4]; FIG. 4): increase in maximum surface pressure
change of Π-A profile / take-off through repeated isocycles ([4]; FIG. 4): slow shift in the Π-A curve to the left
area per molecule at flattening of the Π-A curve ([4]; assuming the film is a monolayer up to this point, FIG. 4): about 60 Å^2
surface area per molecule on take-off [4]: 82 Å^2 per molecule
change of Πmax in subsequent isocycles [5]: marked increase
Πmax in the first isocycle versus meibomian lipid films alone [5]: did not influence
Compound: CCCCCCCC/C=C\CCCCCCCC(=O)OCCCCCCCCCCCCCCCC [palmityl oleate, reference compound]
microscopic appearance of meibomian film mixed with lipid [6]: did not appear substantially different from pure meibomian lipid films

film collapse during compression/expansion cycles (take-off position) [2]: collapse
Compound: CCCCCCCCCCCCCCCCCC(=O)OCCCCCCCCCCCCCCCC [palmityl stearate wax ester, palmityl stearate]

film collapse during compression/expansion cycles (take-off position) [2]: collapse
Compound: CC/C=C\C/C=C\C/C=C\CCCCCCCC(=O)OCCCCCCCCCCCCCCCCCC [steroyl linolenate wax ester, steroyl linolenate]
